Experimental data: patent US12364668B2, “Treatment of opioid use disorder, opioid withdrawal symptoms, and chronic pain” (THE REGENTS OF THE UNIVERSITY OF CALIFORNIA, priority 2017, dated 2025)

Columns and labels:
[1] = molecular target: Cytochrome P450 3A4 (CYP 3A4) (Homo sapiens, UniProt P08684); conditions: in vitro study (Stout and Cimino 2014); cited from earlier work
[2] = tested on: Chronic Constriction Injury model of chronic neuropathic pain; assay: Von Frey pain threshold in the Chronic Constriction Injury (sciatic nerve ligation) model; conditions: CCI rats
Description: Male Sprague Dawley rats underwent baseline measurement of pain threshold via Von Frey testing according to the study schema in FIG. 4. The following day, rats underwent surgical ligation of the sciatic nerve using the Chronic Constriction Injury model of chronic neuropathic pain. After 7 days to allow the development of chronic neuropathic pain, rats underwent repeat Von Frey testing to determine pain threshold and started oral treatment with CBD or saline (Table 2). After 7 days of CBD or saline, rats underwent pre-dosing pain threshold determination via Von Frey testing and then received either standard dose BUP, low dose BUP, CBD alone or low dose BUP plus CBD followed by repeat post-dose pain threshold determination via Von Frey testing (Table 3).

[3] = rats (Graham and Li, 1973); cited from earlier work

Chain of Cytochrome P450 3A4 (CYP 3A4) (P08684 whole entry, species assumed): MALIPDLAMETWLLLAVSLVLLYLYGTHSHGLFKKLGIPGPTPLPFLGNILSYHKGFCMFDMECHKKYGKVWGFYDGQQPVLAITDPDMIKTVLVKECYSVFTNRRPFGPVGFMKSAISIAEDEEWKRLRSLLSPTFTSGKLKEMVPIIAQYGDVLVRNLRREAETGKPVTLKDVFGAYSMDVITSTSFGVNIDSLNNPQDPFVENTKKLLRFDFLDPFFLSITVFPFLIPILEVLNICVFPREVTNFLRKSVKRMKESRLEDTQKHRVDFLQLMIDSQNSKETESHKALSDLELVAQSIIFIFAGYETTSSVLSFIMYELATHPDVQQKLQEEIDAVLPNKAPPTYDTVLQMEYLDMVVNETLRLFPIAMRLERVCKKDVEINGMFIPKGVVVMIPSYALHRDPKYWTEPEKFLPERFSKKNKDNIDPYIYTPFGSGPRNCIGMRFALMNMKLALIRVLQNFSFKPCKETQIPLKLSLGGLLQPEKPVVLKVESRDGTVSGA

C=C(C)[C@@H]1CCC(C)=C[C@H]1c1c(O)cc(CCCCC)cc1O [CBD, cannabidiol]
Inhibition of CYP 3A4 [1]: inhibits | Mean pain threshold (g in Von Frey Testing), Day 14-1 hour Post Dose ([2]; CBD alone 7 mg/kg PO days 7-14, saline IV on day 14): 5.25 g | Pain threshold on day 14 compared to no BUP (Group 1) ([2]; CBD alone 7 mg/kg PO days 7-14): did not significantly increase | Mean pain threshold (g in Von Frey Testing), Day 14 Pre-Dose ([2]; CBD alone group, after 7 days of CBD 7 mg/kg PO, before day 14 dosing): 5.50 g | Effect on respiratory rate [3]: did not reduce
